The values below come from US20210038681A1, “PHARMACEUTICAL COMPOSITION FOR TREATING VIRAL HEPATITIS C” (priority 2018, published 2021).

The test system of test [1] is HCV 1a Wild-type replicon. The note with it: read-out: Mean EC50 (nM) ± SD; HCV 1a variant Wild-type; Huh7-Lunet cells.
The subject of test [2] is HCV 1a Wild-type replicon. The test is described as follows: microbe, parasite or virus in culture. The note with it: Hepatitis C virus, Huh-7, read-out: Mean EC50 (nM) ± SD.
Test [3] relates to Wild-type HCV 1b replicon. In kind it is cell-based. The note with it: Hepatitis C virus, read-out: Mean EC50 (nM).

Like-named read-outs stand apart in the source and are kept apart here.

For the molecule `C[C@@]1(F)[C@H](O)[C@@H](CO)O[C@H]1n1ccc(N)nc1=O` [PSI-6130], the EC50 in test [1] worked out at 770 nM.
With `CNC(=O)c1c(-c2ccc(F)cc2)oc2cc(N(CCO)S(C)(=O)=O)c(C3CC3)cc12` [HCV-796], the EC50 in test [2] is 11.8 nM.
On to `CC(C)(C)OC(=O)N[C@H]1CCCCC/C=C\[C@@H]2C[C@@]2(C(=O)NS(=O)(=O)C2CC2)NC(=O)[C@@H]2C[C@@H](OC(=O)N3Cc4cccc(F)c4C3)CN2C1=O` [ASC08, Danoprevir], for which the half-maximal effective concentration (EC50) in test [3] was determined as 0.7 nM; in test [2], 5.4 nM.

What is called EC50 is the concentration needed to bring the measured effect to its halfway point.
